This test has as its system BDF1 mice, P388 leukemia ip, median survival T/C. Briefly: NCI In Vivo Anticancer Drug Screen. Data for tumor model P388 Leukemia (intraperitoneal) in B6D2F1 (BDF1) mice. To be noted: endpoint: median survival time, higher = longer survival. An outline of the steps: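 Compound-treated tumour-bearing mice were compared with vehicle-treated controls. Survival was recorded, and the value is the treated-group measurement divided by the control-group measurement (T/C).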

Where [1] appears, read: dose: 50.0 mg/kg/injection, schedule: Q01DX009 (ip), vehicle: saline with Tween-80.
The mark [2] stands for this setting: dose: 100.0 mg/kg/injection, schedule: Q01DX009 (ip), vehicle: saline with Tween-80.
Setting [3] is: dose: 200.0 mg/kg/injection, schedule: Q01DX009 (ip), vehicle: saline with Tween-80.
[4] abbreviates: dose: 12.5 mg/kg/injection, schedule: Q01DX009 (ip), vehicle: saline.

Several values for one entry are separate records, joined by “and”; a condition that tells them apart may be missing. Equal values may be shown once. Toxic doses and inconclusive results are not listed.

`C=C1C(=O)O[C@@H]2/C=C(/C)[C@@]3(O)C=C[C@](C)(C[C@@H](OC(=O)/C(=C\C)COC(C)=O)[C@@H]12)O3`: the T/C was 90 % of control (dose: 0.38 mg/kg/injection, schedule: Q01DX010 (ip), vehicle: carboxymethylcellulose (CMC)); 95 % of control (dose: 0.75 mg/kg/injection, schedule: Q01DX010 (ip), vehicle: carboxymethylcellulose (CMC)); 103 % of control (dose: 1.0 mg/kg/injection, schedule: Q01DX009 (ip), vehicle: carboxymethylcellulose (CMC)); 109 % of control (dose: 1.5 mg/kg/injection, schedule: Q01DX010 (ip), vehicle: carboxymethylcellulose (CMC)); 118 % of control (dose: 2.5 mg/kg/injection, schedule: Q01DX010 (ip), vehicle: saline); 104 % of control (dose: 3.0 mg/kg/injection, schedule: Q01DX010 (ip), vehicle: carboxymethylcellulose (CMC)). Further, the T/C by setting is: (dose: 5.0 mg/kg/injection, schedule: Q01DX010 (ip), vehicle: carboxymethylcellulose (CMC)) 157 % of control; (dose: 5.0 mg/kg/injection, schedule: Q01DX010 (ip), vehicle: saline) 122 % of control; (dose: 6.0 mg/kg/injection, schedule: Q01DX010 (ip), vehicle: carboxymethylcellulose (CMC)) 163 % of control; (dose: 8.0 mg/kg/injection, schedule: Q01DX009 (ip), vehicle: carboxymethylcellulose (CMC)) 117 % of control; (dose: 8.0 mg/kg/injection, schedule: Q01DX010 (ip), vehicle: carboxymethylcellulose (CMC)) 157 % of control; (dose: 12.0 mg/kg/injection, schedule: Q01DX010 (ip), vehicle: carboxymethylcellulose (CMC)) 118 % of control. For the same compound, the T/C was 109 % of control (dose: 18.0 mg/kg/injection, schedule: Q01DX010 (ip), vehicle: saline); 105 % of control (dose: 27.0 mg/kg/injection, schedule: Q01DX010 (ip), vehicle: carboxymethylcellulose (CMC)); 100 % of control (dose: 40.0 mg/kg/injection, schedule: Q01DX010 (ip), vehicle: saline).

In the case of `CN1c2ccccc2C(=O)NC1c1ccc([N+](=O)[O-])s1` (stereo not given), the T/C under setting [1] was 95 % of control, the T/C under setting [2] was 100 % of control and the T/C under setting [3] is 91 % of control.

As for `Clc1ccc(N=C/C=C\C=C/Nc2ccc(Cl)cc2)cc1`, where the note is “dose: 20.0 mg/kg/injection, schedule: Q01DX009 (ip), vehicle: saline with Tween-80”, the T/C was 91 % of control.

With `COC(=O)[C@@H]1c2cc3c(c(O)c2[C@@H](OC2OC(C)C(OC)C(C)(OC)C2OC)C[C@]1(C)O)C(=O)c1c(O)cc2c(c1C3=O)O[C@H]1O[C@]2(C)[C@H](O)[C@@H](N(C)C)[C@@H]1O` (stereo not given in full), the T/C is 113 % of control (dose: 0.13 mg/kg/injection, schedule: Q01DX010 (ip), vehicle: saline); 154 % of control (dose: 0.19 mg/kg/injection, schedule: Q01DX010 (ip), vehicle: saline); 100 % of control (dose: 0.25 mg/kg/injection, schedule: Q01DX009 (sc), vehicle: saline); 109 % of control (dose: 0.25 mg/kg/injection, schedule: Q01DX010 (ip), vehicle: saline); 150 % of control (dose: 0.38 mg/kg/injection, schedule: Q01DX010 (ip), vehicle: saline); 100 % of control (dose: 0.5 mg/kg/injection, schedule: Q01DX009 (sc), vehicle: saline). For the same compound, the T/C was 100 % of control (dose: 0.75 mg/kg/injection, schedule: Q01DX001 (sc), vehicle: saline); 109 % of control (dose: 1.0 mg/kg/injection, schedule: Q01DX009 (ip), vehicle: saline); 100 % of control (dose: 1.0 mg/kg/injection, schedule: Q01DX009 (sc), vehicle: saline); 155 % of control (dose: 1.0 mg/kg/injection, schedule: Q01DX010 (ip), vehicle: saline); 100 % of control (dose: 1.5 mg/kg/injection, schedule: Q01DX001 (sc), vehicle: saline); 100 % of control (dose: 2.0 mg/kg/injection, schedule: Q01DX009 (ip), vehicle: saline). Also, the T/C (dose: 2.0 mg/kg/injection, schedule: Q01DX009 (oral), vehicle: saline) was 100 % of control; the T/C (dose: 2.0 mg/kg/injection, schedule: Q01DX009 (sc), vehicle: saline) was 100 % of control; the T/C (dose: 2.16 mg/kg/injection, schedule: Q04DX003 (ip), vehicle: water) was 95 % of control; the T/C (dose: 3.0 mg/kg/injection, schedule: Q01DX001 (sc), vehicle: saline) was 100 % of control; the T/C (dose: 3.0 mg/kg/injection, schedule: Q04DX003 (ip), vehicle: water) was 107 % of control; the T/C (dose: 4.0 mg/kg/injection, schedule: Q01DX009 (ip), vehicle: saline) is 100 % of control. The T/C is 100 % of control (dose: 4.0 mg/kg/injection, schedule: Q01DX009 (oral), vehicle: saline); 104 % of control (dose: 4.0 mg/kg/injection, schedule: Q01DX009 (sc), vehicle: saline); 100 % of control (dose: 5.0 mg/kg/injection, schedule: Q01DX001 (oral), vehicle: saline); 100 % of control (dose: 6.0 mg/kg/injection, schedule: Q01DX001 (sc), vehicle: saline); 100 % of control (dose: 8.0 mg/kg/injection, schedule: Q01DX009 (oral), vehicle: saline); 100 % of control (dose: 10.0 mg/kg/injection, schedule: Q01DX001 (oral), vehicle: saline). In addition, the T/C is 100 % of control (dose: 12.0 mg/kg/injection, schedule: Q01DX001 (sc), vehicle: saline); 100 % of control (dose: 16.0 mg/kg/injection, schedule: Q01DX009 (oral), vehicle: saline); 100 % of control (dose: 20.0 mg/kg/injection, schedule: Q01DX001 (oral), vehicle: saline); 100 % of control (dose: 40.0 mg/kg/injection, schedule: Q01DX001 (oral), vehicle: saline); 110 % of control (dose: 7.0 micrograms/kg/injection, schedule: Q01DX010 (ip), vehicle: saline); 90 % of control (dose: 15.0 micrograms/kg/injection, schedule: Q01DX010 (ip), vehicle: saline). Further, for the setting “dose: 30.0 micrograms/kg/injection, schedule: Q01DX010 (ip), vehicle: saline”, the T/C is 110 % of control.

Regarding `C[P+](Cc1ccc([N+](=O)[O-])cc1)(c1ccccc1)c1ccccc1`, the T/C is 96 % of control (dose: 1.56 mg/kg/injection, schedule: Q01DX009 (ip), vehicle: Klucel (hydroxypropylcellulose) (HPC)); 88 % of control (dose: 3.12 mg/kg/injection, schedule: Q01DX009 (ip), vehicle: Klucel (hydroxypropylcellulose) (HPC)); 89 % of control (dose: 12.5 mg/kg/injection, schedule: Q01DX009 (ip), vehicle: Klucel (hydroxypropylcellulose) (HPC)); 100 % of control (dose: 12.5 mg/kg/injection, schedule: Q04DX003 (ip), vehicle: Klucel (hydroxypropylcellulose) (HPC)); 104 % of control (dose: 50.0 mg/kg/injection, schedule: Q04DX003 (ip), vehicle: Klucel (hydroxypropylcellulose) (HPC)).

Take `O=C(O)c1ccc(CCCC2CCCC2)cc1`: the T/C is 109 % of control (dose: 100.0 mg/kg/injection, schedule: Q04DX003 (ip), vehicle: Klucel (hydroxypropylcellulose) (HPC)) and 100 % of control (dose: 200.0 mg/kg/injection, schedule: Q04DX003 (ip), vehicle: Klucel (hydroxypropylcellulose) (HPC)).

For `CCCCC[C@H](CN(C)C)[C@H](O)/C=C/c1ccc(Cl)cc1`, the T/C runs as follows: under setting [4], 101 % of control; (dose: 25.0 mg/kg/injection, schedule: Q01DX009 (ip), vehicle: saline) 112 % of control; (dose: 50.0 mg/kg/injection, schedule: Q01DX009 (ip), vehicle: saline) 108 % of control.

Regarding `O=C1OC2(CCCCC2)Cc2oc3ccccc3c(=O)c21`, the T/C (dose: 50.0 mg/kg/injection, schedule: Q01DX005 (ip), vehicle: Klucel (hydroxypropylcellulose) (HPC)) is 87 % of control and the T/C (dose: 200.0 mg/kg/injection, schedule: Q01DX005 (ip), vehicle: Klucel (hydroxypropylcellulose) (HPC)) was 92 % of control.

As to `CN1C2Oc3ccccc3C1Oc1ccccc12`, the T/C under setting [1] was 112 % of control, the T/C under setting [2] is 99 % of control and the T/C under setting [3] was 99 % of control.

Turning to `CN(C)c1cc2c3c(c1)CCCN3CCC2`, the T/C was 95 % of control (dose: 3.13 mg/kg/injection, schedule: Q01DX009 (ip), vehicle: saline); 100 % of control (dose: 6.25 mg/kg/injection, schedule: Q01DX009 (ip), vehicle: saline); 113 % of control under setting [4].

Turning to `[Fe+5].[O-][Cl+3]([O-])([O-])O.[O-]c1ccccc1C=NCCN1CC1.[O-]c1ccccc1C=NCCN1CC1`, the T/C was 100 % of control and 120 % of control (dose: 100.0 mg/kg/injection, schedule: Q04DX003 (ip), vehicle: saline with Tween-80); 116 % of control (dose: 200.0 mg/kg/injection, schedule: Q04DX003 (ip), vehicle: saline with Tween-80).

These data come from PubChem BioAssay AID328 (DTP/NCI, 2004).
